Test results from US10377770B2 (Novartis AG, priority 2015, dated 2019).

Target: C-Raf FL (full length CRAF with Y340E and Y341E activating mutations, co-expressed with h14-3-3 zeta) (Homo sapiens (Human), UniProt P04049, Y340E/Y341E)
Experiment: In vitro Raf activity determination, AlphaScreen p-MEK readout, c-Raf (C-Raf FL)
Type: biochemical
Conditions: c-Raf approximately 4 nM, ATP 1 μM, pre-incubation 60 minutes, reaction 1 hour
From the text: Sf9 cells co-expressing both proteins were lysed and subjected to immobilized nickel chromatography and eluted with Imidazole. A second column (StrepII binding column) was used and eluted with desthiobiotin. Protein Tags were removed using Prescission enzyme and the protein was further purified using a flowthrough step to remove tags.
C-Raf TR refers to a truncated C-Raf protein, a Δ1-324 deletion mutant. C-Raf FL refers to the full-length C-Raf protein.
Full length MEK1 with an inactivating K97R ATP binding site mutation is utilized as a RAF substrate. The MEK1 cDNA was subcloned with an N-terminal (his)6 tag into a vector for E. Coli expression. The MEK1 substrate was purified from E. Coli lysate by nickel affinity chromatography followed by anion exchange. The final MEK1 preparation was biotinylated (Pierce EZ-Link Sulfo-NHS-LC-Biotin) and concentrated.
Assay Materials: Assay buffer is 50 mM Tris, pH 7.5, 15 mM MgCl2, 0.01% Bovine Serum Albumin (BSA) and 1 mM dithiothreitol (DTT); Stop buffer is 60 mM ethylenediaminetetraacetic acid (EDTA) and 0.01% Tween® 20; b-Raf (V600E), active; biotinylated Mek, kinase dead; Alpha Screen detection kit (available from PerkinElmer™, #6760617R); Anti phospho-MEK1/2 (available from Cell Signaling Technology, Inc. #9121); 384 well low volume assay plates (White Greiner® plates).
Assay conditions: b-Raf (V600E) approximately 4 pM; c-Raf approximately 4 nM; biotinylated Mek, kinase dead approximately 10 nM; ATP 10 μM for BRAF (V600E) and 1 μM for CRAF; Pre-incubation time with compounds 60 minutes at room temperature; Reaction time 1 or 3 hours at room temperature.
Assay protocol: Raf and biotinylated Mek (kinase dead) were combined at 2× final concentrations in assay buffer (50 mM Tris, pH 7.5, 15 mM MgCl2, 0.01% BSA and 1 mM DTT) and dispensed […] per well in assay plates (Greiner white 384 well assay plates #781207) containing […] of 40× of a Raf kinase inhibitor test compound diluted in 100% DMSO. The plate was incubated for 60 minutes at room temperature. The Raf kinase activity reaction was started by the addition of […] per well of 2×ATP diluted in assay buffer. After 3 hours (b-Raf(V600E)) or 1 hour (c-Raf). The reactions were stopped and the phosphorylated product was measured using a rabbit anti-p-MEK (Cell Signaling, #9121) antibody and the Alpha Screen IgG (ProteinA) detection Kit (PerkinElmer #6760617R), by the addition of […] to the well of a mixture of the antibody (1:2000 dilution) and detection beads (1:2000 dilution of both beads) in Stop/bead buffer (25 mM EDTA, 50 mM Tris, pH 7.5, 0.01% Tween20). The additions were carried out under dark conditions to protect the detection beads from light. A lid was placed on top of the plate and incubated for 1 hour at room temperature, after which the luminescence was read on a PerkinElmer Envision instrument.

C-Raf FL (full length CRAF with Y340E and Y341E activating mutations, co-expressed with h14-3-3 zeta), sequence (P04049 whole entry Y340E/Y341E): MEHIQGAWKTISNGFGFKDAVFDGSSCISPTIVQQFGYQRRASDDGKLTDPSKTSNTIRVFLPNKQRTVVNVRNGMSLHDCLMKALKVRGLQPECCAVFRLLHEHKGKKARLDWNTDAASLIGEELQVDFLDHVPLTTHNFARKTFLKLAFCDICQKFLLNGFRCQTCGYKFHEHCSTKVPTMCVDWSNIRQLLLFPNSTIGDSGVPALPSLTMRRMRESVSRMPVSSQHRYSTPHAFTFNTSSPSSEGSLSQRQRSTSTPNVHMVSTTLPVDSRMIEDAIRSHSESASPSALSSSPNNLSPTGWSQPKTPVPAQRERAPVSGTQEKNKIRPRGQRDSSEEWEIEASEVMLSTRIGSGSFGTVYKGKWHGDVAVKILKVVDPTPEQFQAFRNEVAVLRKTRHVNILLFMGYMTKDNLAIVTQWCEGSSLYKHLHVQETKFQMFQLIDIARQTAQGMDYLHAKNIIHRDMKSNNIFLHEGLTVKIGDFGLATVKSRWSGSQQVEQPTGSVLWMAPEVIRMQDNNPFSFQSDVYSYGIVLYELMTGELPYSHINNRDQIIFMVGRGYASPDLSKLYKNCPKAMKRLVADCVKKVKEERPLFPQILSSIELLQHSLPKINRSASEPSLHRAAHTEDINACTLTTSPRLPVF
C-Raf FL (full length CRAF with Y340E and Y341E activating mutations, co-expressed with h14-3-3 zeta), sequence (P63104 whole entry partner): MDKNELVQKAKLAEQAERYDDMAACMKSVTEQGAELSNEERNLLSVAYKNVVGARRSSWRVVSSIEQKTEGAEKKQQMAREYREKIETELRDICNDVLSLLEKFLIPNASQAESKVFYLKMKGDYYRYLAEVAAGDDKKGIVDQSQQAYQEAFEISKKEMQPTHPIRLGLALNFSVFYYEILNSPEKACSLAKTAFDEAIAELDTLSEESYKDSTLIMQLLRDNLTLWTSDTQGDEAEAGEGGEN

Question: With `Cc1ccc(NC(=O)c2ccnc(C(F)(F)F)c2)cc1-c1cnc2c(c1)N1CCOC[C@H]1C[C@@H]2O` (racemic) [Example 37, (rac)-(cis)-N-(3-(6-hydroxy-1,2,4,4a,5,6-hexahydro-[1,4]oxazino[4,3-a][1,5]naphthyridin-9-yl)-4-methylphenyl)-2-(trifluoromethyl)isonicotinamide] as the molecule, how does the IC50 read?
Answer: 0.0081 nM

Question: How did the IC50 turn out when `CCN1C(=O)C[C@@H]2COCCN2c2cc(-c3cc(NC(=O)c4ccnc(C(F)(F)F)c4)ccc3C)cnc21` [Example 129, (R)-N-(3-(7-Ethyl-6-oxo-1,2,4a,5,6,7-hexahydro-4H-[1,4]oxazino[4,3-d]pyrido[2,3-b][1,4]diazepin-10-yl)-4-methylphenyl)-2-(trifluoromethyl)isonicotinamide] was run?
Answer: 0.18 nM

Question: How did the IC50 turn out when `Cc1ccc(NC(=O)c2ccnc(C(C)(F)F)c2)cc1-c1cnc2c(c1)[C@@]1(C)CCOCC[C@@H]1C(=O)N2CCO` (relative stereo) [Example 351, 2-(1,1-difluoroethyl)-N-((5a,11b-trans)-3-(7-(2-hydroxyethyl)-11b-methyl-6-oxo-1,2,4,5,5a,6,7,11b-octahydrooxepino[4,5-c][1,8]naphthyridin-10-yl)-4-methylphenyl) isonicotinamide] was run?
Answer: 1.1 nM

Question: For `Cc1ccc(NC(=O)c2ccnc(C(F)(F)F)c2)cc1-c1cnc2c(c1)N1CCOC[C@@H]1C[C@@H]2O` [Example 103, N-(3-((4aS,6S)-6-hydroxy-1,2,4,4a,5,6-hexahydro-[1,4]oxazino[4,3-a][1,5]naphthyridin-9-yl)-4-methylphenyl)-2-(trifluoromethyl)isonicotinamide], which IC50 is on record?
Answer: 0.013 nM

Question: `CNC(=O)C1Cc2ccc(-c3cc(NC(=O)c4ccnc(C(F)(F)F)c4)ccc3C)cc2N2CCOCC12` (racemic) [Example 66, (rac)-N-methyl-9-(2-methyl-5-(2-(trifluoromethyl)isonicotinamido)phenyl)-1,2,4,4a,5,6-hexahydro-[1,4]oxazino[4,3-a]quinoline-5-carboxamide] was tested. Which IC50 did it give?
Answer: 0.11 nM

Question: With `CCN1C(=O)C2COCCN2c2cc(-c3cc(NC(=O)c4ccnc(C(F)(F)F)c4)ccc3C)nnc21` (racemic) [Example 132, rac-N-(3-(5-Ethyl-6-oxo-5,6,6a,7,9,10-hexahydropyridazino[3′,4′:5,6]pyrazino[2,1-c][1,4]oxazin-2-yl)-4-methylphenyl)-2-(trifluoromethyl)isonicotinamide] as the molecule, how does the IC50 read?
Answer: 0.14 nM

Question: For `Cc1ccc(NC(=O)c2ccnc(C(F)(F)F)c2)cc1-c1cnc2c(c1)N1CCOC[C@H]1C[C@H]2C` [Example 522, N-(4-methyl-3-((4aR,6R)-6-methyl-1,2,4,4a,5,6-hexahydro-[1,4]oxazino[4,3-a][1,5]naph-thyridin-9-yl)phenyl)-2-(trifluoromethyl)iso-nicotinamide], which IC50 is on record?
Answer: 0.1 nM

Question: For `Cc1ccc(NC(=O)c2cncc(C(F)(F)F)c2)cc1-c1cc2c(cc1F)C[C@](F)(CO)[C@@H]1COCCN21` [Example 487, N-(3-((4aS,5R)-5,8-difluoro-5-(hydroxymethyl)-1,2,4,4a,5,6-hexahydro-[1,4]oxazino[4,3-a]quinolin-9-yl)-4-methylphenyl)-5-(trifluoromethyl) nicotinamide], which IC50 is on record?
Answer: 0.7 nM

Question: How did the IC50 turn out when `Cc1ccc(NC(=O)c2ccnc(C(F)(F)F)c2)cc1-c1cnc2c(c1)N1CCOCC1CC2=O` (racemic) [Example 110, rac-N-(4-methyl-3-(6-oxo-1,2,4,4a,5,6-hexahydro-[1,4]oxazino[4,3-a][1,5]naphthyridin-n-9-yl)phenyl)-2-(trifluoromethyl)isonicotinamide] was run?
Answer: 0.002 nM

Question: With `Cc1ccc(NC(=O)c2ccnc(C(C)(F)F)c2)cc1-c1cnc2c(c1)N1CCOC[C@H]1C[C@@]2(C)O` (racemic) [Example 41, (rac)-(trans)-2-(1,1-difluoroethyl)-N-(3-(6-hydroxy-6-methyl-1,2,4,4a,5,6-hexahydro-[1,4]oxazino[4,3-a][1,5]naphthyridin-9-yl)-4-methylphenyl)isonicotinamide] as the molecule, how does the IC50 read?
Answer: 0.0099 nM

Question: For `Cc1ncc(NC(=O)c2cccc(C(F)(F)F)c2)cc1-c1cnc2c(c1)[C@@H]1CCOC[C@H]1C(=O)N2CC(F)F` [Example 266, N-(5-((4aS, 10bR)-6-(2,2-difluoroethyl)-5-oxo-2,4,4a,5,6,10b-hexahydro-1H-pyrano[3,4-c][1,8]naphthyridin-9-yl)-6-methylpyridin-3-yl)-3-(trifluoromethyl) benzamide], which IC50 is on record?
Answer: 0.3 nM

Question: With `Cc1ccc(NC(=O)c2cncc(C(F)(F)F)c2)cc1-c1cnc2c(c1)N1CCOC[C@H]1CC(=O)N2CCO` [Example 329, (R)-N-(3-(7-(2-hydroxyethyl)-6-oxo-2,4,4a,5,6,7-hexahydro-1H-[1,4]oxazino[4,3-d]pyrido[2,3-b][1,4]diazepin-10-yl)-4-methylphenyl)-5-(trifluoromethyl) nicotinamide] as the molecule, how does the IC50 read?
Answer: 0.2 nM

Question: `Cc1ncc(NC(=O)c2cccc(C(F)(F)F)c2)cc1-c1cc2c(nn1)[C@H](O)C[C@@H]1COCCN21` (racemic) [Example 47, (rac)-(trans)-N-(5-(5-hydroxy-5,6,6a,7,9,10-hexahydropyridazino[3′,4′:5,6]pyrido[2,1-c][1,4]oxazin-2-yl)-6-methylpyridin-3-yl)-3-(trifluoromethyl)benzamide] was tested. Which IC50 did it give?
Answer: 0.073 nM

Question: Which IC50 does the source give for `Cc1ccc(NC(=O)c2ccnc(C(C)(F)F)c2)cc1-c1cc2c(cc1F)C[C@@](F)(CO)[C@@H]1COCCN21` [Example 481, N-(3-((4aS,5S)-5,8-difluoro-5-(hydroxymethyl)-1,2,4,4a,5,6-hexahydro-[1,4]oxazino[4,3-a]quinolin-9-yl)-4-methylphenyl)-2-(1,1-difluoroethyl)iso-nicotinamide] here?
Answer: 1.1 nM

Question: With `Cc1ncc(NC(=O)c2ccnc(C(C)(C)C)c2)cc1-c1ccc2c(c1)N1CCOC[C@H]1[C@](F)(CF)C2` [Example 468, 2-(tert-butyl)-N-(5-((4aS,5S)-5-fluoro-5-(fluoromethyl)-1,2,4,4a,5,6-hexahydro-[1,4]oxazino[4,3-a]quinolin-9-yl)-6-methylpyridin-3-yl)isonicotinamide] as the molecule, how does the IC50 read?
Answer: 8 nM

Question: With `CCN1C(=O)CC2COCCN2c2cc(-c3cc(NC(=O)c4cccc(C(F)(F)F)c4)cnc3C)cnc21` (racemic) [Example 131, rac-N-(5-(7-Ethyl-6-oxo-1,2,4a,5,6,7-hexahydro-4H-[1,4]oxazino[4,3-d]pyrido[2,3-b][1,4]diazepin-10-yl)-6-methylpyridin-3-yl)-3-(trifluoromethyl)benzamide] as the molecule, how does the IC50 read?
Answer: 0.06 nM

Question: Which IC50 does the source give for `Cc1ccc(NC(=O)c2cc(C(F)(F)F)ccn2)cc1-c1cnc2c(c1)N1CCOC[C@H]1C[C@@H]2O` (racemic) [Example 147, rac-cis-N-(3-(6-hydroxy-1,2,4,4a,5,6-hexahydro-[1,4]oxazino[4,3-a][1,5]naphthyridin-9-yl)-4-methylphenyl)-4-(trifluoromethyl)picolinamide] here?
Answer: 0.0026 nM

Question: For `Cc1ccc(NC(=O)c2ccnc(C(C)(F)F)c2)cc1-c1ccc2c(c1)N1CCOC[C@@H]1C[C@@H]2O` (single isomer, unassigned) [Example 14], which IC50 is on record?
Answer: 0.034 nM

Question: Which IC50 does the source give for `Cc1ccc(NC(=O)c2cncc(C(F)(F)F)c2)cc1-c1cnc2c(c1)[C@@H]1CCOC[C@H]1C(=O)N2CCO` [Example 306, N-(3-((4aS,10bR)-6-(2-hydroxyethyl)-5-oxo-2,4,4a,5,6,10b-hexahydro-1H-pyrano[3,4-c][1,8]naphthyridin-9-yl)-4-methylphenyl)-5-(trifluoromethyl) nicotinamide] here?
Answer: 0.1 nM

Question: With `Cc1ccc(NC(=O)c2ccnc(C(F)(F)F)c2)cc1-c1cnc2c(c1)N1CCOC[C@H]1C[C@@]2(O)C(F)(F)F` (racemic) [Example 170, rac-cis-N-(3-(6-hydroxy-6-(trifluoromethyl)-1,2,4,4a,5,6-hexahydro-[1,4]oxazino[4,3-a][1,5]naphthyridin-9-yl)-4-methylphenyl)-2-(trifluoromethyl)isonicotinamide] as the molecule, how does the IC50 read?
Answer: 0.025 nM

Question: `Cc1ccc(NC(=O)c2ccnc(C(F)(F)F)c2)cc1-c1ccc2c(c1)N1CCOC[C@H]1[C@](F)(CO)C2` [Example 381, N-(3-((4aS,5S)-5-fluoro-5-(hydroxymethyl)-1,2,4,4a,5,6-hexahydro-[1,4]oxazino[4,3-a]quinolin-9-yl)-4-methylphenyl)-2-(trifluoromethyl)isonicotinamide] was tested. Which IC50 did it give?
Answer: 0.3 nM
